This note sets out measurements from patent publication US10827753B2, “Compositions and methods for controlling nematodes” (Monsanto Technology LLC, priority 2007, dated 2020).

Structures are written as SMILES. Like-named read-outs stand apart in the source and are kept apart here. Marks after values point to notes of the source that are not given here.

One test deals with Meloidogyne incognita. As to the kind of experiment: M. incognita miniaturized greenhouse assay on cucumber seedlings (root galling). It is filed as in vivo. Set-up: key to 1 ppm gall ratings / 1 ppm gall rating: mean of 3 gall ratings: 0=0-5%, 1=6-20%, 2=21-50%, 3=51-100% root galled. As to conditions: for 8 ppm gall ratings: average of triplicate gall rating, scale 0-3 (% root mass galled). The procedure, abridged: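 Compound in acetone/Triton X100 stock (5 mg/mL) diluted into water with 0.015% Triton X100 and applied to sand-planted sprouted cucumber seedlings; inoculated with 500 M. incognita eggs two days after planting. Roots harvested 10–12 days later; galling scored 0–3 by % root mass galled, averaged over triplicates, plus visual root phytotoxicity rating.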

In a further test the test system is root knot nematode (RKN). Kind of test: RKN greenhouse soil assay on cucumber plants. It is filed as in vivo, Meloidogyne incognita. The procedure, abridged:
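Cucumber in sandy soil in pots drenched with 5 ml compound solution (acetone in 0.05% Triton X 100; 1 mg per four pots = 1 kg/ha), 7 days or 0 days before inoculation. Root knot nematode eggs applied ≥4 h after treatment; galling rated 14 days after inoculation, four replicates.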

The subject of the next test is root knot nematode. As to the kind of experiment: Pre-plant incorporated (PPI) greenhouse test of root knot nematode on cucumber plants. Particulars: for pest or weed control at 4000 g/ha / pest or weed control at 8000 g/ha / pest or weed control at 2000 g/ha: Meloidogyne incognita, read-out: percent control (galling reduction) relative to the control blank treatment. The class given is in vivo, Meloidogyne incognita. In a few lines: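 Compound from acetone stock (4 mg in 4 ml), diluted into 0.05%×100 and mixed into sandy field-soil mix at 8, 4 or 2 kg/ha, equivalent to 2, 1 and 0.5 kg/ha drench. Cucumbers sown 0, 7 or 14 days after treatment, nematode eggs added one week later, harvest 14 days post-inoculation; 4 pots/treatment.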

Where [1] appears, read: Acetone 1 mg/kg, standard 10% acetone in 0.05% Triton X 100 formulation.
[2] abbreviates: Radex 1 mg/kg, emulsifiable concentrate, 6.25% active ingredient by weight.
[3] abbreviates: fourteen day pre-plant incorporated, 2 kg/ha rate, test a.
[4] abbreviates: fourteen day pre-plant incorporated, 4 kg/ha rate, test a.
The mark [5] stands for this setting: fourteen day pre-plant incorporated, 4 kg/ha rate, test b.
The mark [6] stands for this setting: fourteen day pre-plant incorporated, 8 ka/ha rate, test a.
Setting [7] is: fourteen day pre-plant incorporated, 8 ka/ha rate, test b.
Setting [8] is: 0 day treatment, 0.05 kg/ha, test a.
[9] abbreviates: 0 day treatment, 0.1 kg/ha, test a.
Where [10] appears, read: 0 day treatment, 0.25 kg/ha, test a.
[11] abbreviates: 0 day treatment, 1 kg/ha, test b.
[12] abbreviates: 24 h, twenty one day pre-plant incorporated, 4 kg/ha rate.
Setting [13] is: 24 h, twenty one day pre-plant incorporated, 8 ka/ha rate.

`CCOP(=O)(NC(C)C)Oc1ccc(SC)c(C)c1` (stereo not shown) [Fenamiphos, fenamiphos, reference compound]: the “1 ppm gall ratings” value is 0^c, 0^d, 0^e (0=0-5%) in the test on Meloidogyne incognita (Table 1B test c); 0^c, 0^d, 0^e (0=0-5%) with Meloidogyne incognita (Table 1B test d); 0^c, 0^d, 0^e (0=0-5%) with Meloidogyne incognita (Table 1B test e). Besides, the figures for the “percent control (galling reduction) relative to the appropriate control blank treatment” value in the test on root knot nematode (RKN) (setting [1]) and with root knot nematode (RKN) (setting [2]) were 98% and 99%, respectively. The “percent control (galling reduction) relative to the control blank treatment” value is 88^a percent in the test with root knot nematode (setting [3]); 99^a percent with root knot nematode (setting [4]); 100^b percent with root knot nematode (setting [5]); 100^a percent in the test on root knot nematode (setting [6]); 100^b percent in the test with root knot nematode (setting [7]); 96% in the test on root knot nematode (seven day pre-plant incorporated, 4 kg/ha rate). For the same compound, the “percent control (galling reduction) relative to the control blank treatment” value turned out to be 100% in the test with root knot nematode (seven day pre-plant incorporated, 8 ka/ha rate); 84% in the test with root knot nematode (twenty one day pre-plant incorporated, 4 kg/ha rate); 99% in the test on root knot nematode (twenty one day pre-plant incorporated, 8 ka/ha rate).
For the compound `c1ccc(-c2noc(-c3cccs3)n2)cc1` [compound 1822], the “1 ppm gall ratings” value in the test with Meloidogyne incognita (Table 1B test a) was 0.33; in the test on Meloidogyne incognita (Table 1B test b) it was 0.67; in the test on Meloidogyne incognita (Table 1B test c) it was 0.33; with Meloidogyne incognita (Table 1B test d), 0 (0=0-5%). In addition, the “1 ppm gall rating” value is reported as 0 (0=0-5%) in the test on Meloidogyne incognita (Table 1C test a), 0.33 in the test on Meloidogyne incognita (Table 1C test b) and 1.33^a with Meloidogyne incognita (Table 1D test a). The “8 ppm gall rating” value in the test on Meloidogyne incognita (Table 1D test a) is given as 0^a (0=0-5%). In the test with Meloidogyne incognita, the “8 ppm gall ratings” value was 0 (0=0-5%). In addition, the “percent control (galling reduction) relative to the control blank treatment” value is recorded as 7^a percent with root knot nematode (RKN) (setting [8]); 47^a percent with root knot nematode (RKN) (setting [9]); 60% in the test with root knot nematode (RKN) (setting [10]); 64% in the test on root knot nematode (RKN) (0 day treatment, 0.25 kg/ha, test b); 89% in the test on root knot nematode (RKN) (0 day treatment, 1 kg/ha, test a); 81% in the test on root knot nematode (RKN) (setting [11]). The “percent control (galling reduction) relative to the control blank treatment” value amounted to 85% in the test on root knot nematode (RKN) (7 day treatment, 1 kg/ha, test a) and 75% with root knot nematode (RKN) (7 day treatment, 1 kg/ha, test b). In addition, the “percent control (galling reduction) relative to the appropriate control blank treatment” value with root knot nematode (RKN) (setting [1]) is given as 94%; in the test with root knot nematode (RKN) (setting [2]), 98%. Besides, the pest or weed control at 4000 g/ha in the test with root knot nematode (setting [12]) came to 82%; with root knot nematode (168 h, seven day pre-plant incorporated, 4 kg/ha rate) it was 99%; with root knot nematode (setting [4]), 97%. In addition, the pest or weed control at 8000 g/ha was determined as 95% in the test on root knot nematode (setting [13]); 99% with root knot nematode (168 h, seven day pre-plant incorporated, 8 ka/ha rate); 100% in the test with root knot nematode (setting [6]). The pest or weed control at 2000 g/ha with root knot nematode (setting [3]) was determined as 67%.
For `Brc1ccc(-c2cnc(-c3cccs3)o2)cc1` [compound 4776], the “1 ppm gall ratings” value in the test with Meloidogyne incognita (Table 1B test a) is given as 1 (1=6-20%); in the test on Meloidogyne incognita (Table 1B test b) it was 1 (1=6-20%); in the test with Meloidogyne incognita (Table 1B test c) it was 0.33; with Meloidogyne incognita (Table 1B test d), 0.33. The “1 ppm gall rating” value with Meloidogyne incognita (Table 1C test a) is recorded as 1 (1=6-20%); with Meloidogyne incognita (Table 1C test b) it was 0.33; with Meloidogyne incognita (Table 1C test c), 1 (1=6-20%); with Meloidogyne incognita (Table 1D test a) it was 0^a (0=0-5%). Moreover, in the test with Meloidogyne incognita (Table 1D test a), the “8 ppm gall rating” value is 0^a (0=0-5%). Moreover, in the test on Meloidogyne incognita, the “8 ppm gall ratings” value is 0 (0=0-5%). The “percent control (galling reduction) relative to the control blank treatment” value with root knot nematode (RKN) (setting [11]) is “— 99^b percent”. In addition, in the test with root knot nematode (setting [12]), the pest or weed control at 4000 g/ha amounted to 50%. The pest or weed control at 8000 g/ha in the test with root knot nematode (setting [13]) was determined as 80%.
As to `Cc1cc(Cl)ccc1-c1noc(-c2ccco2)n1` [compound 5823], the “1 ppm gall ratings” value worked out at 1.67 with Meloidogyne incognita (Table 1B test a), 0.33 in the test with Meloidogyne incognita (Table 1B test b) and 0.33 in the test with Meloidogyne incognita (Table 1B test e). Also, the “percent control (galling reduction) relative to the control blank treatment” value in the test on root knot nematode (RKN) (setting [8]) is 53%; in the test on root knot nematode (RKN) (0 day treatment, 0.05 kg/ha, test c), 38%; with root knot nematode (RKN) (setting [9]) it was 85%; in the test on root knot nematode (RKN) (0 day treatment, 0.1 kg/ha, test c), 91%; in the test with root knot nematode (RKN) (setting [10]) it was 95%; in the test on root knot nematode (RKN) (0 day treatment, 0.25 kg/ha, test c) it was 98%. Moreover, the pest or weed control at 2000 g/ha in the test on root knot nematode (setting [3]) was determined as 85%. Besides, the figures for the pest or weed control at 4000 g/ha in the test with root knot nematode (setting [4]) and in the test on root knot nematode (setting [5]) were 98% and 94%, respectively. For the same compound, the pest or weed control at 8000 g/ha in the test on root knot nematode (setting [6]) and with root knot nematode (setting [7]) was 100% each time.
